# Source: PubChem BioAssay AID2060605 (Molecular Pharmacology Branch, DTP, NCI, 2025)
# Tested on: 947758-054-R-J2-PDC spheroid growth, percent test/control
# Test: Anticancer human tumor 947758-054-R-J2-PDC patient-derived colon adenocarcinoma cell line growth inhibition [CLK]
# Conditions: spheroids with HUVEC and MSC; for IC50: curve of first compound; for viability, T/C: stronger effect = lower value
# How it was run: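 Multi-cell-type spheroids combined patient-derived tumor cells with HUVEC endothelial cells and human mesenchymal stem cells. Paired agents were dosed in half-log steps down from about clinical Cmax, or from 10 microM where Cmax was unknown.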
# 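Further: spheroids exposed to compounds for one week before readout.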
# 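Wherever viability, T/C is given: 100% = DMSO vehicle control wells.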
smiles,measurement,setting,value
C=CC(=O)Nc1cc(Nc2nccc(-c3cn(C)c4ccccc34)n2)c(OC)cc1N(C)CCN(C)C + CNC(=O)c1ccc(Nc2nc(OC3CCCC3)c3c(-c4ccc5nc(C)oc5c4)c[nH]c3n2)c(OC)c1,IC50,second compound 0.0316 µM,> 0.3 µM
same,IC50,second compound 0.1 µM,> 0.3 µM
same,IC50,second compound 0.316 µM,0.251 µM
same,IC50,second compound 1 µM,0.122 µM
same,IC50,second compound 3.16 µM,< 0.000949 µM
same,IC50,second compound 10 µM,< 0.000949 µM
same,"viability, T/C","second compound 0.0316 µM, first compound 0.000949 µM",90%
same,"viability, T/C","second compound 0.0316 µM, first compound 0.003 µM",78.9%
same,"viability, T/C","second compound 0.0316 µM, first compound 0.00949 µM",80.4%
same,"viability, T/C","second compound 0.0316 µM, first compound 0.03 µM",94.6%
same,"viability, T/C","second compound 0.0316 µM, first compound 0.0949 µM",86.2%
same,"viability, T/C","second compound 0.0316 µM, first compound 0.3 µM",64%
same,"viability, T/C","second compound 0.1 µM, first compound 0.000949 µM",102%
same,"viability, T/C","second compound 0.1 µM, first compound 0.003 µM",94.9%
same,"viability, T/C","second compound 0.1 µM, first compound 0.00949 µM",83.7%
same,"viability, T/C","second compound 0.1 µM, first compound 0.03 µM",87.9%
same,"viability, T/C","second compound 0.1 µM, first compound 0.0949 µM",78.1%
same,"viability, T/C","second compound 0.1 µM, first compound 0.3 µM",52.5%
same,"viability, T/C","second compound 0.316 µM, first compound 0.000949 µM",88.2%
same,"viability, T/C","second compound 0.316 µM, first compound 0.003 µM",81.8%
same,"viability, T/C","second compound 0.316 µM, first compound 0.00949 µM",65.8%
same,"viability, T/C","second compound 0.316 µM, first compound 0.03 µM",96.3%
same,"viability, T/C","second compound 0.316 µM, first compound 0.0949 µM",108%
same,"viability, T/C","second compound 0.316 µM, first compound 0.3 µM",43.1%
same,"viability, T/C","second compound 1 µM, first compound 0.000949 µM",70.2%
same,"viability, T/C","second compound 1 µM, first compound 0.003 µM",53.1%
same,"viability, T/C","second compound 1 µM, first compound 0.00949 µM",47.1%
same,"viability, T/C","second compound 1 µM, first compound 0.03 µM",52%
same,"viability, T/C","second compound 1 µM, first compound 0.0949 µM",62.8%
same,"viability, T/C","second compound 1 µM, first compound 0.3 µM",25.4%
same,"viability, T/C","second compound 3.16 µM, first compound 0.000949 µM",48.9%
same,"viability, T/C","second compound 3.16 µM, first compound 0.003 µM",44.4%
same,"viability, T/C","second compound 3.16 µM, first compound 0.00949 µM",44.8%
same,"viability, T/C","second compound 3.16 µM, first compound 0.03 µM",44%
same,"viability, T/C","second compound 3.16 µM, first compound 0.0949 µM",39.5%
same,"viability, T/C","second compound 3.16 µM, first compound 0.3 µM",23.1%
same,"viability, T/C","second compound 10 µM, first compound 0.000949 µM",39.8%
same,"viability, T/C","second compound 10 µM, first compound 0.003 µM",39.5%
same,"viability, T/C","second compound 10 µM, first compound 0.00949 µM",42.7%
same,"viability, T/C","second compound 10 µM, first compound 0.03 µM",35.2%
same,"viability, T/C","second compound 10 µM, first compound 0.0949 µM",20.9%
same,"viability, T/C","second compound 10 µM, first compound 0.3 µM",18.3%
Nc1ccccc1NC(=O)c1ccc(CNC(=O)OCc2cccnc2)cc1 + CNC(=O)c1ccc(Nc2nc(OC3CCCC3)c3c(-c4ccc5nc(C)oc5c4)c[nH]c3n2)c(OC)c1,IC50,second compound 0.0316 µM,2.23 µM
same,IC50,second compound 0.1 µM,2.52 µM
same,IC50,second compound 0.316 µM,2.51 µM
same,IC50,second compound 1 µM,0.439 µM
same,IC50,second compound 3.16 µM,< 0.0316 µM
same,IC50,second compound 10 µM,< 0.0316 µM
same,"viability, T/C","second compound 0.0316 µM, first compound 0.0316 µM",89.6%
same,"viability, T/C","second compound 0.0316 µM, first compound 0.1 µM",102%
same,"viability, T/C","second compound 0.0316 µM, first compound 0.316 µM",122%
same,"viability, T/C","second compound 0.0316 µM, first compound 1 µM",85.4%
same,"viability, T/C","second compound 0.0316 µM, first compound 3.16 µM",34.2%
same,"viability, T/C","second compound 0.0316 µM, first compound 10 µM",5.25%
same,"viability, T/C","second compound 0.1 µM, first compound 0.0316 µM",85.4%
same,"viability, T/C","second compound 0.1 µM, first compound 0.1 µM",106%
same,"viability, T/C","second compound 0.1 µM, first compound 0.316 µM",111%
same,"viability, T/C","second compound 0.1 µM, first compound 1 µM",116%
same,"viability, T/C","second compound 0.1 µM, first compound 3.16 µM",36.7%
same,"viability, T/C","second compound 0.1 µM, first compound 10 µM",4.57%
same,"viability, T/C","second compound 0.316 µM, first compound 0.0316 µM",112%
same,"viability, T/C","second compound 0.316 µM, first compound 0.1 µM",83.5%
same,"viability, T/C","second compound 0.316 µM, first compound 0.316 µM",91.3%
same,"viability, T/C","second compound 0.316 µM, first compound 1 µM",101%
same,"viability, T/C","second compound 0.316 µM, first compound 3.16 µM",38.3%
same,"viability, T/C","second compound 0.316 µM, first compound 10 µM",3.65%
same,"viability, T/C","second compound 1 µM, first compound 0.0316 µM",64.5%
same,"viability, T/C","second compound 1 µM, first compound 0.1 µM",62.7%
same,"viability, T/C","second compound 1 µM, first compound 0.316 µM",43%
same,"viability, T/C","second compound 1 µM, first compound 1 µM",48.7%
same,"viability, T/C","second compound 1 µM, first compound 3.16 µM",26.7%
same,"viability, T/C","second compound 1 µM, first compound 10 µM",1.54%
same,"viability, T/C","second compound 3.16 µM, first compound 0.0316 µM",49.2%
same,"viability, T/C","second compound 3.16 µM, first compound 0.1 µM",43.8%
same,"viability, T/C","second compound 3.16 µM, first compound 0.316 µM",44.5%
same,"viability, T/C","second compound 3.16 µM, first compound 1 µM",33.1%
same,"viability, T/C","second compound 3.16 µM, first compound 3.16 µM",16.2%
same,"viability, T/C","second compound 3.16 µM, first compound 10 µM",0.26%
same,"viability, T/C","second compound 10 µM, first compound 0.0316 µM",38.8%
same,"viability, T/C","second compound 10 µM, first compound 0.1 µM",26.8%
same,"viability, T/C","second compound 10 µM, first compound 0.316 µM",31.8%
same,"viability, T/C","second compound 10 µM, first compound 1 µM",29.2%
same,"viability, T/C","second compound 10 µM, first compound 3.16 µM",4.69%
same,"viability, T/C","second compound 10 µM, first compound 10 µM",0.52%
